Results: ChEMBL document CHEMBL1201862, “PubChem BioAssay data set” (2004)
Activity calls are given as the source filed them. For most assays here, no stated cut-off is given here; in the data, actives have a measured EC50 and inactives only a lower limit.

What was measured:
[1] = ZM109 Env clade C HIV-1 fusion inhibitors, dose response, HeLa effector, CEM target cells, luciferase, cherry-pick (AID 652058); format: functional, cell-based
[2] = inhibitors of clade B AD8 Env fusion, dose response, cell-based, cherry-pick (AID 652062); format: functional;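 further: luciferase signal from cell-cell fusion driven by HIV-1 clade B AD8 Env; potency is for inhibitors of fusion seen as a drop in luminescence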
[3] = test system: BJ; assay: cytotoxicity toward BJ-TERT fibroblasts, dose response, cell-based, RAS-independent, luminescence (AID 1933); format: functional; details: Homo sapiens
[4] = test system: BJ; assay: cells; format: functional, cell-based; details: Homo sapiens
[5] = test system: BJ; assay: cytotoxicity toward BJ-TERT-LT-ST fibroblasts, dose response, cell-based, RAS-independent, luminescence (AID 1935); format: functional; details: Homo sapiens;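 further: BJ fibroblasts immortalized with TERT plus LT and ST oncogenes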
[6] = cytotoxicity toward DRD oncogenic fibroblasts, dose response, cell-based, non-viral oncogenic, luminescence (AID 1934); format: functional; details: Homo sapiens
[7] = Luminescence Cell-Based Dose Retest to Confirm Inhibitors of Cancer Stem Cells. [Related pubchem assays (depositor defined):AID2717, AID2721]; format: functional; details: Homo sapiens
[8] = test system: INS1; assay: beta cell apoptosis inhibitors, cytokine rescue, dose response, luminescence, retest (AID 449756); format: functional, cell-based; details: Rattus norvegicus;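 further: cell death triggered by IL-1 beta plus TNF-alpha plus IFN-gamma mixture; protective hits raise ATP signal compared with cytokine alone wells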
[9] = Luminescence Cell-Based Dose Response HTS to Identify Activators of Luciferase Translation or Activity in H4 […] Cells. [Related pubchem assays: 1829 (Project Summary), 1814 (Primary HTS)]; format: functional
[10] = test system: H4; assay: Luminescence Cell-Based Dose Response HTS to Identify Activators of 5'UTR Stem-Loop Driven Prion Protein mRNA Translation in H4 Neuroglioblastoma Cells. [Related pubchem assays: 1829 (Project Summary), 1814 (Primary HTS)]; format: functional; details: Homo sapiens
[11] = biological target: T1, Corticotropin-releasing factor receptor 2/Corticotropin-releasing factor-binding protein (Homo sapiens, UniProt P24387+Q13324); assay: activators of CRF receptor 2 with binding protein – uHTS hits, confirmation (AID 602473); format: functional; details: read-out: EC50_Mean
T1 sequence (Q13324 whole entry): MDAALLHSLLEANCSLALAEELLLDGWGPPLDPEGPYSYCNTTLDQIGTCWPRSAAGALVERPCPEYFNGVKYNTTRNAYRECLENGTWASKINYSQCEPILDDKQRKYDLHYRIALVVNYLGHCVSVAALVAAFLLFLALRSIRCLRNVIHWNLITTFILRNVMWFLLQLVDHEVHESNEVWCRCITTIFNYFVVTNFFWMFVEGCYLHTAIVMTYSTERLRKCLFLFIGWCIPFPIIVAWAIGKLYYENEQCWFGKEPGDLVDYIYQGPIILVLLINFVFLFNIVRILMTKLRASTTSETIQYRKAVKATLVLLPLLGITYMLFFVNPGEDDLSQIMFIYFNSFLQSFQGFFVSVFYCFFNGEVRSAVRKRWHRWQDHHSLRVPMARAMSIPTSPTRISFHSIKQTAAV
T1 sequence (P24387 whole entry): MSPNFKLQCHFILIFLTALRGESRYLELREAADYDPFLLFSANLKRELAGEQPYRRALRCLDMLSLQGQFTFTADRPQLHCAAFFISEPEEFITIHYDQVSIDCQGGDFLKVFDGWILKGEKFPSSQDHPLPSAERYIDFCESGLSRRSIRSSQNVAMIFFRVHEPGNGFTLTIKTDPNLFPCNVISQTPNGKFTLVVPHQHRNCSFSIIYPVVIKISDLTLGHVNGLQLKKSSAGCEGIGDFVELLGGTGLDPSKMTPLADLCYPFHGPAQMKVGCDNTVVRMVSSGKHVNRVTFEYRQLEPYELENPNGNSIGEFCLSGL

[12] = cells; format: functional
[13] = P. falciparum Dd2 growth inhibitors, dose response, SYBR Green, cherry-picked samples (AID 1159567); format: functional, cell-based
[14] = biological target: T2, Ubiquitin-conjugating enzyme E2 N (Homo sapiens, UniProt P61088); format: functional;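 further: Dose-response confirmation in a TR-FRET assay detecting UBC13-driven polyubiquitin chain formation, inhibition measured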
T2 sequence (P61088 whole entry): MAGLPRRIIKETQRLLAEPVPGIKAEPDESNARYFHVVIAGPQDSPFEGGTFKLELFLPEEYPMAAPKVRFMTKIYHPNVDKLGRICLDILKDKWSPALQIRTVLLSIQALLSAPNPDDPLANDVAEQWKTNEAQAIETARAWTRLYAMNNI

[15] = growth suppression of beta-catenin-knockout colon cells, dose response, cell-based, HCT116, human colon tumor (AID 1045); format: functional;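 further: HCT116 colon tumor cells with beta catenin knocked out; cells exposed to compound for 60 hours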
[16] = HEp-2 cell cytotoxicity, dose response, cytotoxicity control for RSV inhibitor project, HTS (AID 2410); format: functional; details: human respiratory syncytial virus
[17] = growth suppression of PTEN-null colon cells, dose response, cell-based, HCT116 PTEN knockout (AID 1047); format: functional;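 further: HCT116 colon tumor cells with PTEN knocked out; cells exposed to compound for 60 hours before readout; potency for loss of cell viability measured by luminescence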
[18] = biological target: T3, RNA-binding protein pos-1 (Caenorhabditis elegans, UniProt G5EF15); assay: inhibitors of POS-1/mex-3 RNA binding, dose response, biochemical, fluorescence polarization (AID 1964);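 further: purified POS-1 fused to maltose binding protein made in E. coli; potency of compounds blocking POS-1 binding to fluorescent RNA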
T3 sequence (G5EF15 whole entry): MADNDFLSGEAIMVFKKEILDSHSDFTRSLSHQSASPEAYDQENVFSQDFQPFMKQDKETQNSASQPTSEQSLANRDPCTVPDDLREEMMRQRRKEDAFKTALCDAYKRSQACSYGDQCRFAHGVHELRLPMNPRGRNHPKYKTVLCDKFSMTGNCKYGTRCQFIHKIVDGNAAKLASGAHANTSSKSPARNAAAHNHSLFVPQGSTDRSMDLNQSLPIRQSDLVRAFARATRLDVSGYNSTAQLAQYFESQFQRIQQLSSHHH

[19] = biological target: T4, Zinc finger protein mex-5 (Caenorhabditis elegans, UniProt Q9XUB2); assay: MEX-5/TCR-2 RNA interaction inhibitors, dose response, biochemical, C. elegans, fluorescence polarization (AID 1960)
T4 sequence (Q9XUB2 whole entry): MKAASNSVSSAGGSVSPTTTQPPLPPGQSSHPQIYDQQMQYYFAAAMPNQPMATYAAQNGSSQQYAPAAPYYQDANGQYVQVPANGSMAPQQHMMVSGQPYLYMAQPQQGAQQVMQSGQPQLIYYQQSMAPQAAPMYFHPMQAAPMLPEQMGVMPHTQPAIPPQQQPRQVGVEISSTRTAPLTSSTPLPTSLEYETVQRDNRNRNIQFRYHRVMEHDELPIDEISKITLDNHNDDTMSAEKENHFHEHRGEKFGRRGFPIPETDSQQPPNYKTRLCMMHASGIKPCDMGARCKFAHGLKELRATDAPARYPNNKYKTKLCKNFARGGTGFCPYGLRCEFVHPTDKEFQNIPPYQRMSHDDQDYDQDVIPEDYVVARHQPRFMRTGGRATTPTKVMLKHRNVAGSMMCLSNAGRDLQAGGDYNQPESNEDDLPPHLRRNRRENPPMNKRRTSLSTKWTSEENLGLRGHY

[20] = test system: Streptococcus sp. 'group A'; assay: growth inhibition of control SK(-) GAS strain, dose response, counter-screen for streptokinase expression inhibitor project, luminescence, kanamycin, BacTiterGlo, confirmation (AID 1900); format: functional, organism-based
[21] = biological target: T5, Streptokinase A (Streptococcus pyogenes serotype M1, UniProt P10520); assay: S. pyogenes streptokinase expression inhibitors, potency, dose response, plasminogen activation absorbance, OD405 (AID 1914); format: functional, Streptococcus pyogenes M1 GAS;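 further: secreted streptokinase activity via plasminogen activation per viability signal from cell pellet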
T5 sequence (P10520 whole entry): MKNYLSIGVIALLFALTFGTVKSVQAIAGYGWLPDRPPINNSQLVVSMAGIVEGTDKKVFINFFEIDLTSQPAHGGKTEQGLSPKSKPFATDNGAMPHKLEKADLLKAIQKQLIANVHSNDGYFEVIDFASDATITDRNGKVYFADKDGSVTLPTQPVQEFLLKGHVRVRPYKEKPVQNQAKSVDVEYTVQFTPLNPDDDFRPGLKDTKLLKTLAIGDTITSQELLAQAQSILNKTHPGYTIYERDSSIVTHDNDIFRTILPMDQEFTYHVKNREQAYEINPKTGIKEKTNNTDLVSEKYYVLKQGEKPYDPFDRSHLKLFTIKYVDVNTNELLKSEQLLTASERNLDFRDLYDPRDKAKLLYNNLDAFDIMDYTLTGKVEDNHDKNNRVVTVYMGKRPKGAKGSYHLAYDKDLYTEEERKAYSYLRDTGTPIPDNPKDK

[22] = inhibitors of intracellular T. cruzi replication, confirmation, NIH3T3 host cells, beta-gal luminescence (AID 2044); format: functional, cell-based;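 further: intracellular parasites grown in NIH/3T3 mouse fibroblasts as host cells; luminescent beta-galactosidase reporter signal from transgenic T. cruzi replicating inside host cells; inhibitors lower the luminescence signal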
[23] = microbe, parasite or virus in culture; format: functional; details: Mycobacterium tuberculosis
[24] = cytotoxicity toward NIH3T3 fibroblasts, dose response, counter-screen, cell-based, ATP luminescence, mouse fibroblasts (AID 2010); format: functional;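 further: cells exposed to compound for about 90 hours before reading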
[25] = test system: Streptococcus; assay: Group A Streptococcus viability loss, dose response, counter-screen for streptokinase expression inhibitor project, luminescence, BacTiterGlo (AID 1915); format: functional, organism-based;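 further: potency for reduction of bacterial viability or growth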

SMILES: COC(=O)C1CCN(C(=O)COC(=O)c2cc(S(=O)(=O)N3CCOCC3)ccc2C)CC1
- AC50 [1]: 17.5 µM (active)
- AC50 [2]: 45.6 µM (active)

SMILES: N#CC1=C(N)N2C(=C(C#N)C1c1ccc(Br)cc1)Nc1ccccc12 (stereo unspecified)
- EC50 [3]: 11.8 µM (inconclusive)
- EC50 [4]: 62.4 µM (active)
- EC50 [5]: > 150 µM (inconclusive)
- EC50 [6]: 9.84 µM (active)
- AC50 [7]: 0.794 µM (active)
- AC50 [8]: 3.56 µM (active)

SMILES: Cc1cccc(-c2nc(C#N)c(NCC3CCCO3)o2)c1 (stereo unspecified)
- EC50 [9]: 1.97 µM (active)
- EC50 [10]: 36 µM (active)

SMILES: COc1ccc(NC(=O)C(c2cc3c(cc2[N+](=O)[O-])OCO3)N(C)c2ccccc2)cc1 (stereo unspecified)
- EC50 [11]: > 53 µM (inactive)

SMILES: CCOC(=O)CC(=O)Nc1ccc(C(=O)OCC)cc1
- IC50 [12]: 22.4 µM (active)

SMILES: Cc1ccccc1S(=O)(=O)N1[C@H](C#N)[C@H](c2ccc(C#CC3CCCC3)cc2)[C@@H]1CO
- AC50 [13]: 5.11 µM (active)

SMILES: C/C(=N\NC(=O)CSCc1ccc([N+](=O)[O-])cc1)c1ccccc1O
- IC50 [14]: > 20 µM (inactive)

SMILES: Cc1cc(NC(=O)CSc2nc3c(c(=O)n2-c2ccc(Br)cc2)SCC3)no1
- EC50 [15]: 155 µM (active)

SMILES: O=C(Nc1ccc(-c2nc3ccccc3c(=O)o2)cc1)c1ccco1
- IC50 [12]: 0.84 µM (active)

SMILES: CCc1nc2sc3c(c2c(=O)n1NC(=O)CCl)CCCC3
- CC50 [16]: 10.2 µM (active)
- EC50 [3]: > 150 µM (not active)
- EC50 [4]: > 150 µM (not active)
- EC50 [5]: > 150 µM (not active)
- EC50 [6]: > 150 µM (not active)

SMILES: Cc1cc(N2CCOCC2)nc(NCc2ccccc2)n1
- EC50 [11]: 5.68 µM (active)

SMILES: CCC1(C)Cc2c(sc3nnn(CC(=O)Nc4cccc5ccccc45)c(=O)c23)CO1 (stereo unspecified)
- EC50 [17]: 25.8 µM (active)
- EC50 [15]: 23.9 µM (active)

SMILES: O=C(NCC1CCCCC1)c1ccc(F)cc1Cl
- EC50 [9]: 107 µM (active)
- EC50 [10]: > 120 µM (not active)

SMILES: CCOC(=O)c1sc2nc3n(c(=O)c2c1C)CCCCC3
- EC50 [9]: 27.9 µM (active)
- EC50 [10]: 101 µM (active)

SMILES: CC1=CC(C)(C)n2c(O)c(/N=N/C(=N)S)c3cc(C)cc1c32
- IC50 [14]: > 20 µM (inactive)

SMILES: O=[N+]([O-])c1ccc2nc(O)c(/C=C(\O)c3ccccc3)nc2c1
- EC50 [18]: 20.1 µM (active)
- EC50 [19]: > 300 µM (inconclusive)

SMILES: CN(C)c1ccc(/C=C2\C(=N)N3N=C(CC(=O)N4CCCCC4)SC3=NC2=O)cc1
- EC50 [11]: 6.36 µM (active)

SMILES: O=C1NC(=O)N(Cc2ccc(F)cc2)C(=O)/C1=C\c1ccc([N+](=O)[O-])s1
- IC50 [12]: 24.7 µM (active)

SMILES: C=C[C@](C)(CC[C@@]1(C)C(C)CC(OC2OC(C)C(OC3OC(COC(C)=O)C(O)C(O)C3O)C(O)C2O)[C@@]2(C)C(C)=CCCC12)OC1OC(C)C(O[C@@H]2O[C@@H](C)C(O)C(O)[C@H]2O)C(O)C1O (stereo partly specified)
- IC50 [14]: > 20 µM (inactive)

SMILES: CCCC(=O)N(CCN1CCOCC1)c1nc2c(C)cccc2s1
- IC50 [14]: > 20 µM (inactive)

SMILES: C=CCC[C@@H](Cc1ccc(F)cc1)C(=O)OC[C@H](Cc1c[nH]c2ccccc12)NC(=O)[C@@H](CC=C)CC(=O)NCCO
- EC50 [11]: 11.4 µM (active)

SMILES: Cc1cc(O)c(CN(C)C)c2c1C(=O)/C(=C/c1ccco1)O2
- EC50 [18]: 32.1 µM (active)
- EC50 [19]: 39.8 µM (active)

SMILES: Oc1ccc(Br)cc1/C=N/Nc1nc(N2CCCCC2)nc(N2CCOCC2)n1
- EC50 [20]: 3.48 µM (active)
- EC50 [21]: 33.6 µM (active)
- EC50 [22]: 1.91 µM (active)
- CC50 [23]: > 40 µM (active)
- EC50 [24]: > 60 µM (not active)
- EC50 [25]: 24.7 µM (active)

SMILES: Cc1ccsc1C1NC(=O)c2c(sc3c2CCN(C)C3)N1 (stereo unspecified)
- EC50 [11]: > 53 µM (inactive)

SMILES: COc1ccc(/C=C/c2nc(S(=O)(=O)c3ccccc3)c(NCCCN(C)C)o2)cc1OC
- AC50 [2]: 14.6 µM (active)

SMILES: CCN(CC)c1ccc(N=Nc2nc[nH]n2)cc1
- EC50 [18]: 73.4 µM (active)
- EC50 [19]: > 300 µM (inconclusive)

SMILES: O=C1Nc2cc(Cl)cnc2N2CCCC12 (stereo unspecified)
- EC50 [18]: 16.8 µM (active)
- EC50 [19]: 12.5 µM (active)

SMILES: NCCCC[C@@H](C(=O)N1CCNCC1)n1cc(CN)nn1
- IC50 [14]: > 20 µM (inactive)

SMILES: CCN(CC)S(=O)(=O)c1ccc(N/C=C2\C(=O)N(C)C(=O)C(C#N)=C2C)cc1
- EC50 [18]: 32.7 µM (active)
- EC50 [19]: 44.4 µM (active)

SMILES: C/C(=N\NC(=O)c1cc([N+](=O)[O-])cc([N+](=O)[O-])c1)c1ccco1
- EC50 [22]: 0.768 µM (active)
- EC50 [24]: > 60 µM (not active)
- IC50 [12]: 3.35 µM (active)
